Assay results as given in PubChem BioAssay AID248 (DTP/NCI, 2004).
Where “and” joins values, the source holds several entries; their conditions need not be identical. Equal values may be shown once. Inconclusive results and toxic doses are left out. Rule as the data show it: active = T/C of 150% or more; inactive = T/C below 125%.

System: L1210 leukemia ip in BDF1 mice, survival T/C
Experiment: NCI In Vivo Anticancer Drug Screen. Data for tumor model L1210 Leukemia (intraperitoneal) in B6D2F1 (BDF1) mice
Conditions: endpoint: mean survival time, higher = longer survival
Outline: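 Each compound was tested against a transplantable tumor grown in mice. The endpoint was survival, with treated animals benchmarked against vehicle controls as a simple ratio.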

[1] = dose: 100.0 mg/kg/injection, schedule: Q01DX009 (ip), vehicle: Klucel (hydroxypropylcellulose) (HPC)
[2] = dose: 200.0 mg/kg/injection, schedule: Q01DX009 (ip), vehicle: Klucel (hydroxypropylcellulose) (HPC)
[3] = dose: 400.0 mg/kg/injection, schedule: Q01DX009 (ip), vehicle: Klucel (hydroxypropylcellulose) (HPC)
[4] = dose: 100.0 mg/kg/injection, schedule: Q01DX001 (ip), vehicle: Klucel (hydroxypropylcellulose) (HPC)
[5] = dose: 200.0 mg/kg/injection, schedule: Q01DX001 (ip), vehicle: Klucel (hydroxypropylcellulose) (HPC)
[6] = dose: 400.0 mg/kg/injection, schedule: Q01DX001 (ip), vehicle: Klucel (hydroxypropylcellulose) (HPC)
[7] = dose: 100.0 mg/kg/injection, schedule: Q04DX002 (ip), vehicle: Klucel (hydroxypropylcellulose) (HPC)
[8] = dose: 200.0 mg/kg/injection, schedule: Q04DX002 (ip), vehicle: Klucel (hydroxypropylcellulose) (HPC)
[9] = dose: 100.0 mg/kg/injection, schedule: Q04DX003 (ip), vehicle: saline
[10] = dose: 200.0 mg/kg/injection, schedule: Q04DX003 (ip), vehicle: saline
[11] = dose: 400.0 mg/kg/injection, schedule: Q04DX003 (ip), vehicle: saline

Measured: T/C

Cc1cccc2cc3cccc[n+]3cc12
inactive: dose: 1.56 mg/kg/injection, schedule: Q04DX003 (ip), vehicle: saline 101 % of control | dose: 3.12 mg/kg/injection, schedule: Q01DX009 (ip), vehicle: saline 96 % of control | dose: 3.12 mg/kg/injection, schedule: Q04DX003 (ip), vehicle: saline 93 % of control | dose: 6.25 mg/kg/injection, schedule: Q01DX009 (ip), vehicle: saline 96 % of control | dose: 6.25 mg/kg/injection, schedule: Q04DX003 (ip), vehicle: saline 97 % of control | dose: 12.5 mg/kg/injection, schedule: Q04DX003 (ip), vehicle: saline 100 % of control

Cc1ccc(SP(=S)(Sc2ccc(C)cc2)Sc2ccc(C)cc2)cc1
inactive: [1] 97 % of control | [2] 97 % of control | [3] 94 % of control

CCCCCCCCCCCCCCCCCCN=C(Cl)Cl
inactive: [4] 88 % of control | [5] 96 % of control | [6] 98 % of control

O=C(OCc1ccc2c(c1)OCO2)C1CC1
inactive: dose: 100.0 mg/kg/injection, schedule: Q04DX002 (ip), vehicle: saline with Tween-80 103 % of control | dose: 400.0 mg/kg/injection, schedule: Q04DX002 (ip), vehicle: saline with Tween-80 101 % of control

Cc1ccc(NC(=O)c2cc([N+](=O)[O-])cc([N+](=O)[O-])c2)cc1Cl
inactive: [1] 96 % of control | [2] 100 % of control | [3] 88 % of control

CCCCCC(Oc1ccc(Cl)cc1C)C(=O)O (stereo unspecified)
inactive: [7] 107 % of control | [8] 107 % of control

CCN(CC)/N=N/c1nc[nH]c1C(N)=O
inactive: dose: 12.5 mg/kg/injection, schedule: Q01DX009 (ip), vehicle: water 100 % of control | dose: 25.0 mg/kg/injection, schedule: Q01DX009 (ip), vehicle: Klucel (hydroxypropylcellulose) (HPC) 117 % of control | dose: 25.0 mg/kg/injection, schedule: Q01DX009 (ip), vehicle: water 101 % of control | dose: 50.0 mg/kg/injection, schedule: Q01DX001 (ip), vehicle: water 102 % of control | dose: 50.0 mg/kg/injection, schedule: Q01DX009 (ip), vehicle: Klucel (hydroxypropylcellulose) (HPC) 111 % of control | dose: 50.0 mg/kg/injection, schedule: Q01DX009 (ip), vehicle: water 98 % of control and 104 % of control | dose: 50.0 mg/kg/injection, schedule: Q04DX003 (ip), vehicle: water 101 % of control | [4] 104 % of control | dose: 100.0 mg/kg/injection, schedule: Q01DX001 (ip), vehicle: water 103 % of control | [1] 114 % of control | dose: 100.0 mg/kg/injection, schedule: Q01DX009 (ip), vehicle: water 105 % of control and 86 % of control | dose: 100.0 mg/kg/injection, schedule: Q04DX003 (ip), vehicle: Klucel (hydroxypropylcellulose) (HPC) 102 % of control | dose: 100.0 mg/kg/injection, schedule: Q04DX003 (ip), vehicle: water 102 % of control | [5] 101 % of control | dose: 200.0 mg/kg/injection, schedule: Q01DX001 (ip), vehicle: water 100 % of control | dose: 200.0 mg/kg/injection, schedule: Q04DX003 (ip), vehicle: Klucel (hydroxypropylcellulose) (HPC) 108 % of control | dose: 200.0 mg/kg/injection, schedule: Q04DX003 (ip), vehicle: water 110 % of control | [6] 113 % of control | dose: 400.0 mg/kg/injection, schedule: Q01DX001 (ip), vehicle: water 113 % of control | dose: 400.0 mg/kg/injection, schedule: Q04DX003 (ip), vehicle: Klucel (hydroxypropylcellulose) (HPC) 119 % of control | dose: 400.0 mg/kg/injection, schedule: Q04DX003 (ip), vehicle: water 111 % of control

Nc1nc(N)c2c(n1)CCP(c1ccccc1)C2 (stereo unspecified)
inactive: dose: 12.5 mg/kg/injection, schedule: Q04DX003 (ip), vehicle: saline with Tween-80 98 % of control | dose: 25.0 mg/kg/injection, schedule: Q04DX003 (ip), vehicle: saline with Tween-80 96 % of control | dose: 50.0 mg/kg/injection, schedule: Q04DX003 (ip), vehicle: saline with Tween-80 95 % of control

O=[N+]([O-])c1ccc(NCc2ccccc2)c2c1no[n+]2[O-]
inactive: dose: 37.5 mg/kg/injection, schedule: Q04DX003 (ip), vehicle: saline with Tween-80 100 % of control | dose: 75.0 mg/kg/injection, schedule: Q04DX003 (ip), vehicle: saline with Tween-80 106 % of control | dose: 150.0 mg/kg/injection, schedule: Q04DX003 (ip), vehicle: saline with Tween-80 100 % of control

c1cc[c]([Ge]([O][Ge]([c]2ccccc2)([c]2ccccc2)[c]2ccccc2)([c]2ccccc2)[c]2ccccc2)cc1
inactive: dose: 50.0 mg/kg/injection, schedule: Q01DX009 (ip), vehicle: saline with Tween-80 94 % of control | dose: 100.0 mg/kg/injection, schedule: Q01DX009 (ip), vehicle: saline with Tween-80 96 % of control | dose: 200.0 mg/kg/injection, schedule: Q01DX009 (ip), vehicle: saline with Tween-80 96 % of control

O=C(O)C1=NN(c2cc(Cl)c(S(=O)(=O)O)cc2Cl)C(=O)C1
inactive: [9] 92 % of control | [10] 100 % of control | [11] 106 % of control

Cc1ccc(S(=O)(=O)c2ccccc2)cc1
inactive: [9] 103 % of control | [10] 91 % of control | [11] 95 % of control

O=[N+]([O-])c1cc(/C=N/N=C2c3ccccc3-c3ccccc32)ccc1Cl
inactive: dose: 75.0 mg/kg/injection, schedule: Q01DX001 (ip), vehicle: other 86 % of control | dose: 300.0 mg/kg/injection, schedule: Q01DX001 (ip), vehicle: other 91 % of control

O=NN(CCCC(=O)O)C(=O)NCCCC(=O)O
inactive: dose: 25.0 mg/kg/injection, schedule: Q01DX Z (ip), vehicle: carboxymethylcellulose (CMC) 103 % of control | dose: 50.0 mg/kg/injection, schedule: Q01DX Z (ip), vehicle: carboxymethylcellulose (CMC) 90 % of control | dose: 100.0 mg/kg/injection, schedule: Q01DX Z (ip), vehicle: carboxymethylcellulose (CMC) 100 % of control | dose: 200.0 mg/kg/injection, schedule: Q01DX Z (ip), vehicle: carboxymethylcellulose (CMC) 94 % of control | dose: 300.0 mg/kg/injection, schedule: Q01DX Z (ip), vehicle: carboxymethylcellulose (CMC) 95 % of control

CCn1c(O)c(C=N)c(=O)[nH]c1=O
inactive: dose: 100.0 mg/kg/injection, schedule: Q01DX009 (ip), vehicle: saline 96 % of control | [9] 88 % of control | dose: 200.0 mg/kg/injection, schedule: Q01DX009 (ip), vehicle: saline 93 % of control | [10] 95 % of control | [11] 90 % of control

c1nc(SCC2CO2)c2ncn(CC3CO3)c2n1 (stereo unspecified)
inactive: dose: 100.0 mg/kg/injection, schedule: Q01DX001 (ip), vehicle: saline 107 % of control | dose: 200.0 mg/kg/injection, schedule: Q01DX001 (ip), vehicle: saline 101 % of control | dose: 400.0 mg/kg/injection, schedule: Q01DX001 (ip), vehicle: saline 97 % of control

Oc1ccccc1/C=N\N=C\c1ccccc1O
inactive: dose: 50.0 mg/kg/injection, schedule: Q04DX002 (ip), vehicle: Klucel (hydroxypropylcellulose) (HPC) 93 % of control | dose: 100.0 mg/kg/injection, schedule: Q01DX001 (ip), vehicle: other 97 % of control | [7] 101 % of control | dose: 200.0 mg/kg/injection, schedule: Q01DX001 (ip), vehicle: other 103 % of control | [8] 112 % of control | dose: 400.0 mg/kg/injection, schedule: Q01DX001 (ip), vehicle: other 94 % of control
